Like-named read-outs stand apart in the source and are kept apart here.
Columns and labels:
[1] = NMDA-induced brain injury (neuroprotection), injection into the striatum; assay type: in vivo, rat (seven-day-old albino pups)
Procedure: The neuroprotective action of 5,7-dichlorokynurenate is assessed using an animal model with young rats. Seven-day-old albino rat pups of either sex are anesthetized and given N-methyl-D-aspartate (NMDA) by injection with a fine hypodermic needle into the right posterior corpus striatum. Four days later, the degree of brain damage from NMDA injection is assessed by comparing wet weights of the injected cerebral hemispheres. Methods are similar to those of J. W. McDonald et al. in Experimental Neurology 106:289-296 (1989) except that 15 nmol of NMDA is used rather than 25 nmol as in the McDonald method. The neuroprotective action of 5,7-dichlorokynurenic acid is assessed by injecting it directly into the striatum of the brain in combination with NMDA.

[2] = mouse, in vivo, iv
[3] = mouse, in vivo
Procedure: A follow-up study is performed in which tritiated 5,7-dichloro-1,4-dihydro-4-oxo-2-quinolinecarboxylic acid is injected directly into the cerebral ventricle of mice at two dose levels.

[4] = maximal electroshock, prevention of tonic extensor seizures (anticonvulsant action); assay type: in vivo, mice (adult male CF1 strain); details: for ED50: probit analysis
Procedure: Adult male CF1 strain mice (18 to 24 g body weight) are obtained from Charles River Laboratories. Mice are allowed free access to food and water prior to testing. Maximal electroshock is performed according to conventional methods (Krall, R. L., et al, Antiepileptic drug development: II. Anticonvulsant drug screening, Epilepsia 19:409-428 (1978). Electrical current (50 mA sinusoid at 60 Hz) is applied by metal corneal electrodes for 0.2 sec. This intensity of electrical current is five times the amount needed to produce tonic extensor seizures in untreated mice. Pretreatment of mice with known anticonvulsant drugs prevents tonic extensor seizures in a dose-related manner (Krall, R. L., et al, Antiepileptic drug development: II. Anticonvulsant drug screening, Epilepsia 19:409-428 (1978). A drug is prepared for intravenous administration by dissolution in aqueous medium with 0.9% sodium chloride. Probenecid is finely divided with mortar and pestle and suspended in 0.2% carboxymethylcellulose in water and given by intraperitoneal injection 30 minutes before administration of anticonvulsant drugs.
That is, groups of ten mice each are pretreated with probenecid (200 mg/kg IP) or saline vehicle. Thirty minutes later each group is given a known anticonvulsant dose of one of several anticonvulsant drugs. The time course of anticonvulsant activity is determined by maximal electroshock testing in groups of mice at various times after administration of the anticonvulsant.
Using procedures identical to those of Example 2, but with administration of several different doses of NBQX, ED50 values were determined by probit analysis (J. T. Litchfield and F. Wilcoxon in Journal of Pharmacology 96:99-113, 1949), with times of testing chosen at approximately the time of maximal anticonvulsant effect (30 seconds for NBQX alone and 10 minutes for NBQX with probenecid coadministration, from Example 1).

CNS behavioral effects = assay type: in vivo, mice; details: NBQX 25 mg/kg in combination with probenecid
[5] = cited from earlier work; for Protection: MDL 100,748 65 mg/kg IV

## O=C(O)c1cc(O)c2c(Cl)cc(Cl)cc2n1 [5,7-dichlorokynurenic acid]
[1]; three different doses co-injected with 15 nmol NMDA, pretreatment with 200 mg/kg probenecid
  neuroprotective action: significantly enhanced
[2]
  penetration and/or retention of radiolabeled material in brain tissue: very little penetration and/or retention of radiolabeled material is observed in brain tissue
[3]
  ratio of area under the brain radioactivity curve (5-120 minutes) for the 1.3 mg/kg to 0.3 mg/kg dose: 12
  transport from brain to blood: actively transported from brain to blood by a saturable process

## NS(=O)(=O)c1cccc2c1c([N+](=O)[O-])cc1nc(O)c(O)nc12 [NBQX, 2,3-dihydroxy-6-nitro-7-sulfamoyl-benzo(F)-quinoxaline]
[4]; Mus musculus, 0.5 min, NBQX alone, IV, tested at 30 seconds, read-out: ED50
  ED50: 13.1 mg/kg
[4]; NBQX 25 mg/kg IV after saline vehicle
  time until which significant anticonvulsant actions are present: 3 min
[4]; NBQX 25 mg/kg IV after saline vehicle, 15 minutes after dosing
  anticonvulsant action: only insignificant anticonvulsant action is seen
[4]; NBQX 25 mg/kg IV with probenecid 200 mg/kg IP, 15 minutes after dosing
  anticonvulsant effects: significant anticonvulsant effects are seen
[4]; NBQX 25 mg/kg IV with probenecid 200 mg/kg IP, 30 minutes after dosing
  anticonvulsant effects: significant anticonvulsant effects are seen
[4]; NBQX 25 mg/kg IV with probenecid 200 mg/kg IP, 1 hour after dosing
  anticonvulsant effects: significant anticonvulsant effects are seen
[4]; NBQX 25 mg/kg IV with probenecid 200 mg/kg IP, 2 hours after dosing
  anticonvulsant effects: significant anticonvulsant effects are seen
[4]; NBQX 25 mg/kg IV with probenecid 200 mg/kg IP, 4 hours after dosing
  anticonvulsant effects (significant effects seen or not): not 4 hours (14400 seconds) after dosing
[4]; NBQX IV coadministered with probenecid 200 mg/kg IP, tested at 10 minutes
  ED50: 2.57 mg/kg
[4]; NBQX with vs without probenecid, ED50 values differ significantly (p <0.05)
  increase in potency following probenecid coadministration: approximately fivefold
CNS behavioral effects
  CNS behavioral effects: ptosis, profoundly decreased locomotor activity, greatly delayed righting reflex, and somnolence

## CCCN(CCC)S(=O)(=O)c1ccc(C(=O)O)cc1 [Probenecid]
[4]; probenecid 200 mg/kg IP followed by IV sodium chloride vehicle
  anticonvulsant actions: no anticonvulsant actions in any of 10 mice
[1]; probenecid alone, in comparison to untreated animals
  extent of brain damage: did not alter the extent of brain damage

## O=C(O)CN=c1cc(C(=O)O)[nH]c2cc(Cl)cc(Cl)c12 [MDL 100,748, 4-[(carboxymethyl)imino]-5,7-dichloro-1,4-dihydro-2-quinolinecarboxylic acid]
[5]; 5 min prior to QA, without probenecid
  Protection: 9/10
[5]; 5 min prior to QA, pretreated with probenecid 200 mg/kg IP 30 min before
  Protection: 9/10
[5]; 30 min prior to QA, without probenecid
  Protection: 0/10
[5]; 30 min prior to QA, pretreated with probenecid 200 mg/kg IP 30 min before
  Protection: 7/10
[5]; pretreated with probenecid, preliminary
  duration of protection against seizures induced by quinolinic acid: longer duration of protection against seizures

## O=C(O)C1CN(CCCP(=O)(O)O)CCN1 (stereo not shown) [CPP, 4-(3-phosphonopropyl)-2-piperazinecarboxylic acid]
[4]; CPP 3 mg/kg IV, with probenecid 200 mg/kg IP
  duration of significant anticonvulsant action: 240 min
[4]; CPP 3 mg/kg IV, with vs without probenecid coadministration
  percentage of mice protected from maximal electroshock seizures: increased by probenecid coadministration at each time point tested
[4]; CPP 3 mg/kg IV, without probenecid
  duration of significant anticonvulsant action: 120 min

Source: patent US5767119A, “Method of treating neurodegenerative diseases using an AMPA excitatory amino and an uricosuric agent” (Warner-Lambert Company, priority 1996, dated 1998)
